Test system: MV-4-11 cells
Assay: Gene expression microarray analysis (Affymetrix PrimeView) and GSEA
Type: cell-based, human
Set-up: RFU PODN (11730768_x_at) / Fold change /veh PODN (11730768_x_at) / RFU LINC00158 (11744669_a_at) / Fold change /veh LINC00158 (11744669_a_at) / RFU DUSP10 (11751237_a_at) / Fold change /veh DUSP10 (11751237_a_at) / RFU ID3 (11757404_x_at) / Fold change /veh ID3 (11757404_x_at) / RFU PLEKHG5 (11737974_s_at) / Fold change /veh PLEKHG5 (11737974_s_at) / RFU LRRC4B (11730491_at) / Fold change /veh LRRC4B (11730491_at) / RFU GIMAP4 (11747438_a_at) / Fold change /veh GIMAP4 (11747438_a_at) / RFU KRT8 (11758183_x_at) / Fold change /veh KRT8 (11758183_x_at) / RFU CNN1 (11734310_a_at) / Fold change /veh CNN1 (11734310_a_at) / RFU VPS37D (11726825_at) / Fold change /veh VPS37D (11726825_at) / RFU C10orf10 (11716522_x_at) / Fold change /veh C10orf10 (11716522_x_at) / RFU KIR2DL2 /// KIR2DL4 /// KIR2DL5A /// KIR2DL5B /// KIR2DS1 /// KIR2DS2 /// KIR2DS3 /// KIR2DS4 /// KIR3DL3 /// KIR3DL3 /// KIR3DS1 (11738374_at) / Fold change /veh KIR2DL2 /// KIR2DL4 /// KIR2DL5A /// KIR2DL5B /// KIR2DS1 /// KIR2DS2 /// KIR2DS3 /// KIR2DS4 /// KIR3DL3 /// KIR3DL3 /// KIR3DS1 (11738374_at) / RFU C1QL1 (11718748_at) / Fold change /veh C1QL1 (11718748_at) / RFU TMPRSS4 (11747572_a_at) / Fold change /veh TMPRSS4 (11747572_a_at) / RFU HAMP (11756126_x_at) / Fold change /veh HAMP (11756126_x_at) / RFU RNFT2 (11725882_a_at) / Fold change /veh RNFT2 (11725882_a_at) / RFU NR4A2 (11747474_a_at) / Fold change /veh NR4A2 (11747474_a_at) / RFU ABCC12 (11746883_a_at) / Fold change /veh ABCC12 (11746883_a_at) / RFU TMEM136 (11760407_x_at) / Fold change /veh TMEM136 (11760407_x_at) / RFU CLDN22 /// WWC2 (11732394_at) / Fold change /veh CLDN22 /// WWC2 (11732394_at) / RFU HLA-DPB1 (11760878_x_at) / Fold change /veh HLA-DPB1 (11760878_x_at) / RFU SPINT1 (11716480_a_at) / Fold change /veh SPINT1 (11716480_a_at) / RFU GAP43 (11754022_s_at) / Fold change /veh GAP43 (11754022_s_at) / RFU A4GNT (11735810_at) / Fold change /veh A4GNT (11735810_at) / RFU PRB3 (11715151_x_at) / Fold change /veh PRB3 (11715151_x_at) / RFU TUBB4B (11761932_at) / Fold change /veh TUBB4B (11761932_at) / RFU CAPN14 (11732068_a_at) / Fold change /veh CAPN14 (11732068_a_at) / RFU TMCC2 (11721928_a_at) / Fold change /veh TMCC2 (11721928_a_at) / RFU IRGQ (11745062_a_at) / Fold change /veh IRGQ (11745062_a_at) / RFU FAM174B (11720279_a_at) / Fold change /veh FAM174B (11720279_a_at) / RFU TMPRSS4 (11748680_a_at) / Fold change /veh TMPRSS4 (11748680_a_at) / RFU FAM212B (11763350_a_at) / Fold change /veh FAM212B (11763350_a_at) / RFU PLEKHG5 (11743358_a_at) / Fold change /veh PLEKHG5 (11743358_a_at) / RFU ZSCAN30 (11745921_a_at) / Fold change /veh ZSCAN30 (11745921_a_at) / RFU CMKLR1 (11741424_a_at) / Fold change /veh CMKLR1 (11741424_a_at) / RFU LOC101060620 /// MAPK8IP1 (11723275_at) / Fold change /veh LOC101060620 /// MAPK8IP1 (11723275_at) / RFU SPTSSB (11747773_x_at) / Fold change /veh SPTSSB (11747773_x_at) / RFU PRSS12 (11739890_at) / Fold change /veh PRSS12 (11739890_at) / RFU BIN1 (11741810_x_at) / Fold change /veh BIN1 (11741810_x_at) / RFU WNT11 (11732464_a_at) / Fold change /veh WNT11 (11732464_a_at) / RFU C10orf10 (11716521_a_at) / Fold change /veh C10orf10 (11716521_a_at) / RFU C5orf56 (11738089_at) / Fold change /veh C5orf56 (11738089_at) / RFU CYB561 (11721691_x_at) / Fold change /veh CYB561 (11721691_x_at) / RFU ANKRD19P (11752326_a_at) / Fold change /veh ANKRD19P (11752326_a_at) / RFU OR2T12 /// OR2T33 /// OR2T8 (11738714_s_at) / Fold change /veh OR2T12 /// OR2T33 /// OR2T8 (11738714_s_at) / RFU VCAN (11748164_a_at) / Fold change /veh VCAN (11748164_a_at) / RFU JSRP1 (11732532_at) / Fold change /veh JSRP1 (11732532_at) / RFU KRTAP10-11 (11738290_x_at) / Fold change /veh KRTAP10-11 (11738290_x_at) / RFU MYO3A (11730013_a_at) / Fold change /veh MYO3A (11730013_a_at) / RFU EBF3 (11725865_a_at) / Fold change /veh EBF3 (11725865_a_at) / RFU CAMK2N1 (11719241_x_at) / Fold change /veh CAMK2N1 (11719241_x_at) / RFU C5orf56 (11738088_a_at) / Fold change /veh C5orf56 (11738088_a_at) / RFU OLFML3 (11715873_a_at) / Fold change /veh OLFML3 (11715873_a_at) / RFU LOC100653217 /// NTM (11731650_a_at) / Fold change /veh LOC100653217 /// NTM (11731650_a_at) / RFU MAPK11 (11762145_a_at) / Fold change /veh MAPK11 (11762145_a_at) / RFU FIZ1 (11724087_x_at) / Fold change /veh FIZ1 (11724087_x_at) / RFU OASL (11726364_x_at) / Fold change /veh OASL (11726364_x_at) / RFU SOX15 (11748057_x_at) / Fold change /veh SOX15 (11748057_x_at) / RFU CD79A (11719716_a_at) / Fold change /veh CD79A (11719716_a_at) / RFU HIST1H1D (11736915_at) / Fold change /veh HIST1H1D (11736915_at) / RFU CASKIN2 (11723855_a_at) / Fold change /veh CASKIN2 (11723855_a_at) / RFU LOC730098 (11760151_x_at) / Fold change /veh LOC730098 (11760151_x_at) / RFU OR4N2 (11742367_at) / Fold change /veh OR4N2 (11742367_at) / RFU PRRT2 (11749266_a_at) / Fold change /veh PRRT2 (11749266_a_at) / RFU SNX32 (11753110_a_at) / Fold change /veh SNX32 (11753110_a_at) / RFU CDHR5 (11726645_a_at) / Fold change /veh CDHR5 (11726645_a_at) / RFU RCAN1 (11760418_a_at) / Fold change /veh RCAN1 (11760418_a_at) / RFU FAM167A (11723789_a_at) / Fold change /veh FAM167A (11723789_a_at) / RFU FAM26E (11764081_at) / Fold change /veh FAM26E (11764081_at) / RFU ISYNA1 (11749810_s_at) / Fold change /veh ISYNA1 (11749810_s_at) / RFU ACY1 (11761880_at) / Fold change /veh ACY1 (11761880_at) / RFU 11764098_at / Fold change /veh 11764098_at / RFU SAMD14 (11745864_x_at) / Fold change /veh SAMD14 (11745864_x_at) / RFU NPB (11741838_a_at) / Fold change /veh NPB (11741838_a_at) / RFU TMPRSS6 (11731388_a_at) / Fold change /veh TMPRSS6 (11731388_a_at) / RFU KRTAP10-2 (11738614_at) / Fold change /veh KRTAP10-2 (11738614_at) / RFU ARHGAP8 /// PRR5-ARHGAP8 (11727945_x_at) / Fold change /veh ARHGAP8 /// PRR5-ARHGAP8 (11727945_x_at) / RFU KRTAP5-7 /// NADSYN1 (11734609_at) / Fold change /veh KRTAP5-7 /// NADSYN1 (11734609_at) / RFU RASL12 (11751679_a_at) / Fold change /veh RASL12 (11751679_a_at) / RFU CDKN2B (11736163_a_at) / Fold change /veh CDKN2B (11736163_a_at) / RFU PRF1 (11729649_at) / Fold change /veh PRF1 (11729649_at) / RFU, ZNF638 /// ZNF638-IT1 / Fold change vs veh, ZNF638 /// ZNF638-IT1 / RFU, PANK3 / Fold change vs veh, PANK3 / RFU, SH3YL1 / Fold change vs veh, SH3YL1 / RFU, ZEB2 / Fold change vs veh, ZEB2 / RFU, NRIP1 / Fold change vs veh, NRIP1 / RFU, PTTG1IP / Fold change vs veh, PTTG1IP / RFU, CAPN2 / Fold change vs veh, CAPN2 / RFU, MED14 / Fold change vs veh, MED14 / RFU, SNORA58 / Fold change vs veh, SNORA58 / RFU, C1orf63 / Fold change vs veh, C1orf63 / RFU, LRRFIP1 / Fold change vs veh, LRRFIP1 / RFU, NDUFAF7 / Fold change vs veh, NDUFAF7 / RFU, SLC12A2 / Fold change vs veh, SLC12A2 / RFU, IBTK / Fold change vs veh, IBTK / RFU, ESF1 / Fold change vs veh, ESF1 / Fold change vs veh, TMEM50B / RFU, TAOK1 / Fold change vs veh, TAOK1 / RFU, ACBD3 / Fold change vs veh, ACBD3 / RFU, TMA16 / Fold change vs veh, TMA16 / RFU, RWDD3 / Fold change vs veh, RWDD3 / RFU, BCAT1 / Fold change vs veh, BCAT1 / RFU, EDEM3 / Fold change vs veh, EDEM3 / RFU, TMEM33 / Fold change vs veh, TMEM33 / RFU, WDR75 / Fold change vs veh, WDR75 / RFU, AHCTF1 / Fold change vs veh, AHCTF1 / RFU, TFRC / Fold change vs veh, TFRC / RFU, ZDHHC17 / Fold change vs veh, ZDHHC17 / RFU, NOM1 / Fold change vs veh, NOM1 / RFU, ARL8B / Fold change vs veh, ARL8B / RFU, ZBTB11 / Fold change vs veh, ZBTB11 / RFU, TAMM41 / Fold change vs veh, TAMM41 / RFU, KIAA1704 /// LOC100996395 / Fold change vs veh, KIAA1704 /// LOC100996395 / RFU, ING1 / Fold change vs veh, ING1 / RFU, TRMT61B / Fold change vs veh, TRMT61B / RFU, FUBP3 / Fold change vs veh, FUBP3 / RFU, TP53 / Fold change vs veh, TP53 / RFU, TNKS2 / Fold change vs veh, TNKS2 / RFU, ZFP14 / Fold change vs veh, ZFP14 / RFU, ACTR2 / Fold change vs veh, ACTR2 / RFU, PPP3R1 / Fold change vs veh, PPP3R1 / RFU, PIK3R1 / Fold change vs veh, PIK3R1 / RFU, HNRNPA1 / Fold change vs veh, HNRNPA1 / RFU, RNF170 / Fold change vs veh, RNF170 / RFU, ZNF28 / Fold change vs veh, ZNF28 / RFU, RNGTT / Fold change vs veh, RNGTT / RFU, OGT / Fold change vs veh, OGT / RFU, BRD1 / Fold change vs veh, BRD1 / RFU, MARS / Fold change vs veh, MARS / RFU, ZNF655 / Fold change vs veh, ZNF655 / RFU, FAHD1 / Fold change vs veh, FAHD1 / RFU, BDP1 / Fold change vs veh, BDP1 / RFU, LRRCC1 / Fold change vs veh, LRRCC1 / RFU, ARID1A / Fold change vs veh, ARID1A / RFU, ZNF146 / Fold change vs veh, ZNF146 / RFU, ZNF330 / Fold change vs veh, ZNF330 / RFU, GPN3 / Fold change vs veh, GPN3 / RFU, C9orf123 / Fold change vs veh, C9orf123 / RFU, N4BP2L2 / Fold change vs veh, N4BP2L2 / RFU, ARFIP1 / Fold change vs veh, ARFIP1 / RFU, FAM179B / Fold change vs veh, FAM179B / RFU, BCL10 / Fold change vs veh, BCL10 / RFU, UHRF1BP1L / Fold change vs veh, UHRF1BP1L / RFU, BET1 / Fold change vs veh, BET1 / RFU, CNOT2 / Fold change vs veh, CNOT2 / RFU, ZNF268 / Fold change vs veh, ZNF268 / Fold change vs veh, ZNF507 / RFU, DGCR2 / Fold change vs veh, DGCR2 / RFU, WDSUB1 / Fold change vs veh, WDSUB1 / Fold change vs veh, HSP90B1 /// MIR3652 / RFU, ADSS / Fold change vs veh, ADSS / RFU, GK / Fold change vs veh, GK / RFU, ZNF148 / Fold change vs veh, ZNF148 / RFU, TAF9 / Fold change vs veh, TAF9 / RFU, SLC1A5 / Fold change vs veh, SLC1A5 / RFU, SLMO2 / Fold change vs veh, SLMO2 / RFU, ABCC4 / Fold change vs veh, ABCC4 / RFU, LOC101060439 /// RAP1B / Fold change vs veh, LOC101060439 /// RAP1B / RFU, RFX7 / Fold change vs veh, RFX7 / RFU, GTPBP10 / Fold change vs veh, GTPBP10 / RFU, CNEP1R1 / Fold change vs veh, CNEP1R1 / RFU, BIVM-ERCC5 /// ERCC5 / Fold change vs veh, BIVM-ERCC5 /// ERCC5 / RFU, ILF3 / Fold change vs veh, ILF3 / RFU 11762660_at / Fold change /veh 11762660_at / RFU VCAN (11757783_s_at) / Fold change /veh VCAN (11757783_s_at) / RFU DDX43 (11728927_at) / Fold change /veh DDX43 (11728927_at) / RFU KRT8 (11758188_x_at) / Fold change /veh KRT8 (11758188_x_at) / RFU NKD1 (11759106_at) / Fold change /veh NKD1 (11759106_at) / RFU SRD5A1 (11742802_a_at) / Fold change /veh SRD5A1 (11742802_a_at) / RFU TPSAB1 /// TPSB2 (11721975_s_at) / Fold change /veh TPSAB1 /// TPSB2 (11721975_s_at) / RFU GSTM3 (11746129_a_at) / Fold change /veh GSTM3 (11746129_a_at) / RFU IL23R (11737362_x_at) / Fold change /veh IL23R (11737362_x_at) / RFU TMEM51 (11727254_a_at) / Fold change /veh TMEM51 (11727254_a_at) / RFU PIWIL2 (11732686_x_at) / Fold change /veh PIWIL2 (11732686_x_at) / RFU ORM1 (11744905_x_at) / Fold change /veh ORM1 (11744905_x_at) / RFU CCDC152 (11743942_at) / Fold change /veh CCDC152 (11743942_at) / RFU ECM1 (11717891_a_at) / Fold change /veh ECM1 (11717891_a_at) / RFU IL23R (11748794_a_at) / Fold change /veh IL23R (11748794_a_at) / RFU TNFAIP8L3 (11732012_x_at) / Fold change /veh TNFAIP8L3 (11732012_x_at) / RFU MBOAT4 (11741988_at) / Fold change /veh MBOAT4 (11741988_at) / RFU 11764193_at / Fold change /veh 11764193_at / RFU TMEM53 (11763286_at) / Fold change /veh TMEM53 (11763286_at) / RFU MAGEB2 (11727129_at) / Fold change /veh MAGEB2 (11727129_at) / RFU TMEM200A (11744735_a_at) / Fold change /veh TMEM200A (11744735_a_at) / RFU CCDC152 (11751479_a_at) / Fold change /veh CCDC152 (11751479_a_at) / RFU FAM211A (11726209_a_at) / Fold change /veh FAM211A (11726209_a_at) / RFU RGS16 (11746705_a_at) / Fold change /veh RGS16 (11746705_a_at) / RFU VCAN (11755009_s_at) / Fold change /veh VCAN (11755009_s_at) / RFU RHOB (11743442_s_at) / Fold change /veh RHOB (11743442_s_at) / RFU RGS16 (11720943_a_at) / Fold change /veh RGS16 (11720943_a_at) / RFU RGS16 (11720944_at) / Fold change /veh RGS16 (11720944_at) / RFU, VPS4B / Fold change vs veh, VPS4B / RFU, CREB1 / Fold change vs veh, CREB1 / RFU, DNAJC13 / Fold change vs veh, DNAJC13 / RFU, GNAQ / Fold change vs veh, GNAQ / RFU, CDK5R1 / Fold change vs veh, CDK5R1 / RFU, ZRANB3 / Fold change vs veh, ZRANB3 / RFU, CUL4A / Fold change vs veh, CUL4A / RFU, CCNY / Fold change vs veh, CCNY / RFU, UFL1 / Fold change vs veh, UFL1 / RFU, COG3 / Fold change vs veh, COG3 / RFU, DIAPH2 / Fold change vs veh, DIAPH2 / RFU, SKA2 / Fold change vs veh, SKA2 / RFU, AFF3 / Fold change vs veh, AFF3 / RFU, LMF1 / Fold change vs veh, LMF1 / RFU, IPO11 / Fold change vs veh, IPO11 / RFU, DFFB / Fold change vs veh, DFFB / RFU, FOXP1 / Fold change vs veh, FOXP1 / RFU, CARD8 / Fold change vs veh, CARD8 / RFU, STRN3 / Fold change vs veh, STRN3 / RFU, ADK / Fold change vs veh, ADK / RFU, RASSF2 / Fold change vs veh, RASSF2 / RFU, WIPF1 / Fold change vs veh, WIPF1 / RFU, LARP1B / Fold change vs veh, LARP1B / RFU, RASA1 / Fold change vs veh, RASA1 / RFU, RB1 / Fold change vs veh, RB1 / RFU, PPFIA1 / Fold change vs veh, PPFIA1 / RFU, MAT2A / Fold change vs veh, MAT2A / RFU, CCT5 / Fold change vs veh, CCT5 / RFU, WDR92 / Fold change vs veh, WDR92 / RFU, CUX1 / Fold change vs veh, CUX1 / RFU, TTC7A / Fold change vs veh, TTC7A / RFU, TMEM135 / Fold change vs veh, TMEM135 / RFU, DEPTOR / Fold change vs veh, DEPTOR / RFU, CPM / Fold change vs veh, CPM / RFU, DNAJB6 / Fold change vs veh, DNAJB6 / RFU, CACNA2D3 / Fold change vs veh, CACNA2D3 / RFU, DTX4 / Fold change vs veh, DTX4 / RFU, TFCP2 / Fold change vs veh, TFCP2 / RFU, GMCL1 /// GMCL1P1 / Fold change vs veh, GMCL1 /// GMCL1P1 / RFU, AEBP2 / Fold change vs veh, AEBP2 / RFU, SNHG1 /// SNORD22 /// SNORD25 /// SNORD26 /// SNORD27 /// SNORD28 /// SNORD29 /// SNORD31 / Fold change vs veh, SNHG1 /// SNORD22 /// SNORD25 /// SNORD26 /// SNORD27 /// SNORD28 /// SNORD29 /// SNORD31 / Fold change (Aza/veh), C12orf56 (ProbeSet 11735607_a_at) / Fold change (ACY-1035/veh), C12orf56 (ProbeSet 11735607_a_at) / Fold change (Aza/veh), FGFR1OP (ProbeSet 11751329_s_at) / Fold change (ACY-1035/veh), FGFR1OP (ProbeSet 11751329_s_at) / Fold change (Aza/veh), VPS36 (ProbeSet 11739960_a_at) / Fold change (ACY-1035/veh), VPS36 (ProbeSet 11739960_a_at) / RFU SYPL1 (11715823_x_at) / Fold change /veh SYPL1 (11715823_x_at) / RFU IGFBP7 (11715501_s_at) / Fold change /veh IGFBP7 (11715501_s_at) / RFU REEP3 (11722064_at) / Fold change /veh REEP3 (11722064_at) / RFU IGLL1 (11728026_x_at) / Fold change /veh IGLL1 (11728026_x_at): dose or concentration left out as unconfirmed
Conditions: ProbeSet 11726661_s_at; LIST B

Structure (SMILES): Nc1ccc(-c2cccs2)cc1NC(=O)c1ccc2c(c1)cc(C1CC1)n2CCN1CCOCC1 [ACY-1035]
- Fold change vs veh, GPN3: 0.89

Source: publication PMC5218480 (PLoS ONE, 2017)
